Laboratory results as given in paper PMC5589648, “Acetyl-lupeolic acid inhibits Akt signaling and induces apoptosis in chemoresistant prostate cancer cells in vitro and in vivo” (Oncotarget, 2017).

Legend:
[1] = target: T1, Akt3 (Homo sapiens, UniProt Q9Y243); assay: in vitro kinase assay, [γ-32P]ATP, GST-GSK-3β substrate; format: biochemical
T1 construct: active recombinant human Akt3

[2] = target: T2, Akt1 (Homo sapiens, UniProt P31749); assay: as above; format: biochemical
T2 construct: active recombinant human Akt1
T2 sequence (P31749 whole entry): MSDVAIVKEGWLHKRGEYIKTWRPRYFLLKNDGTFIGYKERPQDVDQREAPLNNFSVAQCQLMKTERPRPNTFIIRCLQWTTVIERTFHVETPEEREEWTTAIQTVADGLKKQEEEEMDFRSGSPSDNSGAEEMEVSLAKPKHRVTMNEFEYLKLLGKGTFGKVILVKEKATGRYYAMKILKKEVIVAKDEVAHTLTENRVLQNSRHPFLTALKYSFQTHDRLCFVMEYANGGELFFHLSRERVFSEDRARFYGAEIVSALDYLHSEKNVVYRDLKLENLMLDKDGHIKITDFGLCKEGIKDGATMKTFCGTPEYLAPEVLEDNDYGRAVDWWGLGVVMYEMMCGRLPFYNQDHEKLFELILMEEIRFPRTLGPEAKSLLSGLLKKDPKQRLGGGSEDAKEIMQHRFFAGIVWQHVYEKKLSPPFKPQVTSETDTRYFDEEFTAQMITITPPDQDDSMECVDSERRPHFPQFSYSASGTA

T1 sequence (Q9Y243 2-479): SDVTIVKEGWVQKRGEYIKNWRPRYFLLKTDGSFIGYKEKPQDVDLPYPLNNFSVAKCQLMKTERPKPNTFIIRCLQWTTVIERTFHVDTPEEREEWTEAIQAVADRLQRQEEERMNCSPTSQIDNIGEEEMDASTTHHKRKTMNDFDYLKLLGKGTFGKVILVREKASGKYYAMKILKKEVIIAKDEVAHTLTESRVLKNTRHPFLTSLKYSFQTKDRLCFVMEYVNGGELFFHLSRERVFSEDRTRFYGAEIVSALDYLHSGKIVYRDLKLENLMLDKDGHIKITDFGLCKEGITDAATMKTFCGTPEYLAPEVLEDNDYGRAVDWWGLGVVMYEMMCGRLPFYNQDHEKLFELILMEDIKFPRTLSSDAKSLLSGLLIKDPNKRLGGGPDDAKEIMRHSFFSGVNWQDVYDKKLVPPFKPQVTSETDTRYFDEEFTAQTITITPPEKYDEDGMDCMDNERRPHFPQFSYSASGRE

C=C(C)[C@@H]1CC[C@]2(C)CC[C@]3(C)[C@H](CC[C@@H]4[C@@]5(C)CC[C@H](O)C(C)(C)[C@@H]5CC[C@]43C)[C@@H]12 [lupeol]
in vitro kinase assay, [γ-32P]ATP, GST-GSK-3β substrate [1]: Compared to ac-LA, lupeol was about threefold less potent in the inhibition of Akt1 and Akt3 isoforms
in vitro kinase assay, [γ-32P]ATP, GST-GSK-3β substrate [2]: Compared to ac-LA, lupeol was about threefold less potent in the inhibition of Akt1 and Akt3 isoforms
